# Reference: PubChem BioAssay (NCI)
#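 How tested: cells in 96-well plates exposed to compound for 48 hours at five concentrations. GI50 is the concentration that inhibits growth by half. TGI: total growth inhibition.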
# Tests used:
# Test in all cases: NCI tumour cell line growth inhibition, 48 h
# NCI-H460 lung = test system: NCI-H460 lung
# SK-MEL-28 melanoma = test system: SK-MEL-28 melanoma
# NCI-H226 lung = test system: NCI-H226 lung
# 786-0 renal = test system: 786-0 renal
# DMS 273 small cell lung = test system: DMS 273 small cell lung
# SR leukemia = test system: SR leukemia
# SNB-75 CNS = test system: SNB-75 CNS
# EKVX NSCLC = test system: EKVX NSCLC
# SF-268 CNS = test system: SF-268 CNS
# M19-MEL melanoma = test system: M19-MEL melanoma
# MCF7 breast = test system: MCF7 breast
# SK-MEL-2 melanoma = test system: SK-MEL-2 melanoma
# SK-MEL-5 melanoma = test system: SK-MEL-5 melanoma
# SK-OV-3 ovarian = test system: SK-OV-3 ovarian
# SF-295 CNS = test system: SF-295 CNS
# XF 498 CNS = test system: XF 498 CNS
# HT29 colon = test system: HT29 colon
# COLO 205 colon = test system: COLO 205 colon
# SNB-19 CNS = test system: SNB-19 CNS
# UO-31 renal = test system: UO-31 renal
# LOX IMVI melanoma = test system: LOX IMVI melanoma
# A498 renal = test system: A498 renal
# IGROV1 ovarian = test system: IGROV1 ovarian
# HS 578T breast = test system: HS 578T breast
# KM20L2 colon = test system: KM20L2 colon
# CAKI-1 renal = test system: CAKI-1 renal
# TK-10 renal = test system: TK-10 renal
# SW-620 colon = test system: SW-620 colon
# HCT-116 colon = test system: HCT-116 colon
# MDA-MB-231 breast = test system: MDA-MB-231 breast
# M14 melanoma = test system: M14 melanoma
# DLD-1 colon = test system: DLD-1 colon
# LXFL 529 NSCLC = test system: LXFL 529 NSCLC
# HOP-18 NSCLC = test system: HOP-18 NSCLC
# UACC-257 melanoma = test system: UACC-257 melanoma
# HCC-2998 colon = test system: HCC-2998 colon
# MALME-3M melanoma = test system: MALME-3M melanoma
# OVCAR-8 ovarian = test system: OVCAR-8 ovarian
# K-562 leukemia = test system: K-562 leukemia
# HOP-92 NSCLC = test system: HOP-92 NSCLC
# HL-60(TB) leukemia = test system: HL-60(TB) leukemia
# RXF-631 renal = test system: RXF-631 renal
# A549 NSCLC = test system: A549 NSCLC
# OVCAR-5 ovarian = test system: OVCAR-5 ovarian
# NCI-H522 lung = test system: NCI-H522 lung
# DMS 114 small cell lung = test system: DMS 114 small cell lung
# U251 CNS = test system: U251 CNS
# RXF 393 renal = test system: RXF 393 renal
# PC-3 prostate = test system: PC-3 prostate
# RPMI-8226 leukemia = test system: RPMI-8226 leukemia
# ACHN renal = test system: ACHN renal
# T-47D breast = test system: T-47D breast
# HCT-15 colon = test system: HCT-15 colon
# DU-145 prostate = test system: DU-145 prostate
# MOLT-4 leukemia = test system: MOLT-4 leukemia
# SF-539 CNS = test system: SF-539 CNS
# SN12C renal = test system: SN12C renal
# SNB-78 CNS = test system: SNB-78 CNS
# OVCAR-3 ovarian = test system: OVCAR-3 ovarian
# MDA-MB-435 = test system: MDA-MB-435
# HOP-62 NSCLC = test system: HOP-62 NSCLC
# BT-549 breast = test system: BT-549 breast
# NCI-H23 lung = test system: NCI-H23 lung
# NCI/ADR-RES ovarian = test system: NCI/ADR-RES ovarian
# UACC-62 melanoma = test system: UACC-62 melanoma
# KM12 colon = test system: KM12 colon
# OVCAR-4 ovarian = test system: OVCAR-4 ovarian
# CCRF-CEM leukemia = test system: CCRF-CEM leukemia
smiles,measurement,setting,value
Oc1ccc2c(c1)OCC1(O)Cc3cc(O)c(O)cc3C21 (stereo unspecified),TGI,NCI-H460 lung,37.2 µM
same,TGI,SK-MEL-28 melanoma,32.2 µM
same,TGI,NCI-H226 lung,> 65.2 µM
same,TGI,786-0 renal,34.9 µM
same,TGI,DMS 273 small cell lung,> 100 µM
same,TGI,SR leukemia,99.3 µM
same,TGI,SNB-75 CNS,67.8 µM
same,TGI,EKVX NSCLC,45.9 µM
same,TGI,SF-268 CNS,> 68.2 µM
same,TGI,M19-MEL melanoma,> 86 µM
same,GI50,MCF7 breast,18.4 µM
same,TGI,MCF7 breast,36 µM
same,TGI,SK-MEL-2 melanoma,62.2 µM
same,TGI,SK-MEL-5 melanoma,34.2 µM
same,TGI,SK-OV-3 ovarian,> 79.5 µM
same,TGI,SF-295 CNS,> 68.3 µM
same,TGI,XF 498 CNS,28.8 µM
same,TGI,HT29 colon,46.5 µM
same,TGI,COLO 205 colon,45.4 µM
same,TGI,SNB-19 CNS,73 µM
same,TGI,UO-31 renal,> 100 µM
same,TGI,LOX IMVI melanoma,37.2 µM
same,TGI,A498 renal,39 µM
same,TGI,IGROV1 ovarian,> 73.6 µM
same,GI50,HS 578T breast,20.4 µM
same,TGI,HS 578T breast,46.9 µM
same,TGI,KM20L2 colon,> 63 µM
same,TGI,CAKI-1 renal,32.8 µM
same,TGI,TK-10 renal,31.2 µM
same,TGI,SW-620 colon,40.5 µM
same,TGI,HCT-116 colon,42.4 µM
same,GI50,MDA-MB-231 breast,13 µM
same,TGI,MDA-MB-231 breast,26 µM
same,TGI,M14 melanoma,36.2 µM
same,TGI,DLD-1 colon,33.9 µM
same,TGI,LXFL 529 NSCLC,34 µM
same,TGI,HOP-18 NSCLC,32.3 µM
same,TGI,UACC-257 melanoma,34.4 µM
same,TGI,HCC-2998 colon,36 µM
same,TGI,MALME-3M melanoma,32.4 µM
same,TGI,OVCAR-8 ovarian,44.2 µM
same,TGI,K-562 leukemia,> 82.6 µM
same,TGI,HOP-92 NSCLC,37.6 µM
same,TGI,HL-60(TB) leukemia,78.3 µM
same,TGI,RXF-631 renal,> 77.3 µM
same,TGI,A549 NSCLC,> 74.6 µM
same,TGI,OVCAR-5 ovarian,59.7 µM
same,TGI,NCI-H522 lung,46.7 µM
same,TGI,DMS 114 small cell lung,73.5 µM
same,TGI,U251 CNS,39.9 µM
same,TGI,RXF 393 renal,29.7 µM
same,GI50,PC-3 prostate,18.1 µM
same,TGI,PC-3 prostate,39.4 µM
same,TGI,RPMI-8226 leukemia,85.1 µM
same,TGI,ACHN renal,32.7 µM
same,GI50,T-47D breast,19.6 µM
same,TGI,T-47D breast,54.4 µM
same,TGI,HCT-15 colon,44.2 µM
same,GI50,DU-145 prostate,10.7 µM
same,TGI,DU-145 prostate,22.5 µM
same,TGI,MOLT-4 leukemia,72.9 µM
same,TGI,SF-539 CNS,36.8 µM
same,TGI,SN12C renal,51.1 µM
same,TGI,SNB-78 CNS,20 µM
same,TGI,OVCAR-3 ovarian,30 µM
same,GI50,MDA-MB-435,14.8 µM
same,TGI,MDA-MB-435,28.1 µM
same,TGI,HOP-62 NSCLC,> 73.6 µM
same,GI50,BT-549 breast,14.8 µM
same,TGI,BT-549 breast,28 µM
same,TGI,NCI-H23 lung,33.4 µM
same,GI50,NCI/ADR-RES ovarian,29.6 µM
same,TGI,NCI/ADR-RES ovarian,97.9 µM
same,TGI,UACC-62 melanoma,41.9 µM
same,TGI,KM12 colon,69.2 µM
same,TGI,OVCAR-4 ovarian,35.3 µM
same,TGI,CCRF-CEM leukemia,82.8 µM
CCCCCCCCCCCCC(CC)CCCCC(=O)O (stereo unspecified),TGI,NCI-H460 lung,> 100 µM
same,TGI,SK-MEL-28 melanoma,> 100 µM
same,TGI,NCI-H226 lung,> 100 µM
same,TGI,786-0 renal,> 100 µM
same,TGI,DMS 273 small cell lung,> 100 µM
same,TGI,SR leukemia,> 100 µM
same,TGI,SNB-75 CNS,> 100 µM
same,TGI,EKVX NSCLC,> 100 µM
same,TGI,SF-268 CNS,> 100 µM
same,TGI,M19-MEL melanoma,> 100 µM
same,TGI,SK-MEL-2 melanoma,> 100 µM
same,TGI,SK-MEL-5 melanoma,> 100 µM
same,TGI,SK-OV-3 ovarian,> 100 µM
same,TGI,SF-295 CNS,> 100 µM
same,TGI,XF 498 CNS,> 100 µM
same,TGI,HT29 colon,> 100 µM
same,TGI,COLO 205 colon,> 100 µM
same,TGI,SNB-19 CNS,> 100 µM
same,TGI,UO-31 renal,> 100 µM
same,TGI,LOX IMVI melanoma,> 100 µM
same,TGI,A498 renal,> 100 µM
same,TGI,IGROV1 ovarian,> 100 µM
same,TGI,KM20L2 colon,> 100 µM
same,TGI,CAKI-1 renal,> 100 µM
same,TGI,TK-10 renal,> 100 µM
same,TGI,SW-620 colon,> 100 µM
same,TGI,HCT-116 colon,> 100 µM
same,TGI,M14 melanoma,> 100 µM
same,TGI,DLD-1 colon,> 100 µM
same,TGI,LXFL 529 NSCLC,> 100 µM
same,TGI,HOP-18 NSCLC,> 100 µM
same,TGI,UACC-257 melanoma,> 100 µM
same,TGI,HCC-2998 colon,> 100 µM
same,TGI,MALME-3M melanoma,> 100 µM
same,TGI,OVCAR-8 ovarian,> 100 µM
same,TGI,K-562 leukemia,> 100 µM
same,TGI,HOP-92 NSCLC,> 100 µM
same,TGI,HL-60(TB) leukemia,> 90.4 µM
same,TGI,RXF-631 renal,> 100 µM
same,TGI,A549 NSCLC,> 100 µM
same,TGI,OVCAR-5 ovarian,> 100 µM
same,TGI,NCI-H522 lung,> 100 µM
same,TGI,DMS 114 small cell lung,> 100 µM
same,TGI,U251 CNS,> 67.8 µM
same,TGI,RXF 393 renal,> 86.8 µM
same,TGI,RPMI-8226 leukemia,> 100 µM
same,TGI,ACHN renal,> 100 µM
same,TGI,HCT-15 colon,> 100 µM
same,TGI,MOLT-4 leukemia,69.7 µM
same,TGI,SF-539 CNS,> 59.2 µM
same,TGI,SN12C renal,> 100 µM
same,TGI,SNB-78 CNS,> 100 µM
same,TGI,OVCAR-3 ovarian,> 100 µM
same,TGI,HOP-62 NSCLC,> 100 µM
same,TGI,NCI-H23 lung,> 100 µM
same,TGI,UACC-62 melanoma,> 100 µM
same,TGI,KM12 colon,> 100 µM
same,TGI,OVCAR-4 ovarian,> 100 µM
same,TGI,CCRF-CEM leukemia,67.6 µM
